Patent US9983218B2, “Indole and indoline derivatives and methods of use thereof” (AbbVie Inc., priority 2008, dated 2018)
pEC50: −log10 of the molar value. Entries after “also recorded” stand apart in the source; their conditions may differ.

Key:
[1] = system: primary postnatal (P0) cortical cells; assay: Neurite outgrowth assay (Aβ1-42-induced reduction of neurite outgrowth, high content microscopy); type: cell-based, rat; conditions: for Emax: Rattus norvegicus, maximum response relative to 300 nM dimebolin, at the concentration given, read-out: Maximum Effect (of % 300 nM Dimebolin)
Method: In addition to PC12 cells, other cellular model systems may also be used. Rat cortical cells were cultured and prepared for high content microscopy analysis as previously described (Hu, M.; Schurdak, M. E.; et al. High content screen microscopy analysis of Aβ1-42-induced neurite outgrowth reduction in rat primary cortical neurons: Neuroprotective effects of α7 neuronal nicotinic acetylcholine receptor ligands. Brain Res. 2007, 1151, 227-235.). Briefly, cortical cell cultures were plated at density of 5×10^5 cells/mL onto poly-D-lysine coated 96-well plates and maintained in a cell incubator at 37° C. with 5% CO2. Experiments were performed using 6-7 day-old cortical cell cultures by treating with test compounds. In some experiments, the effect of test compounds on reversing Aβ toxicity were also measured (Hu, M.; Schurdak, M. E.; et al. High content screen microscopy analysis of Aβ1-42-induced neurite outgrowth reduction in rat primary cortical neurons: Neuroprotective effects of α7 neuronal nicotinic acetylcholine receptor ligands. Brain Res. 2007, 1151, 227-235.). For assessment of neuroprotective effects, cells were first pretreated with test compounds for about 5 hours. Medium was then replaced with the medium containing freshly prepared about 5 μM Aβ1-42 peptide in the absence or presence of the test compounds for 3 days. The untreated group contained the same percentage of vehicle (DMSO) as in the treatment groups. Cells were fixed with approximately 4% paraformaldehyde containing 0.5% Hoechst 33342 for about 15 minutes, followed by three washes using PBS (pH 7.4) and blocked with 10% donkey serum in PBS for 1 hour at room temperature. The cells were then incubated overnight at about 4° C. with mouse anti-tubulin monoclonal antibody (1:100) for staining neurons and rabbit anti-GFAP (1:1000) for staining glia. In the next day, cells were incubated with FITC-labeled anti-mouse and TRITC-labeled anti-rabbit antibodies (1:1000) for about 1 hour at room temperature. After fixing and staining the cells, nuclei (360/400 nm excitation and 465/300 nm emission filters), neuron (475/350 nm excitation and 535/400 nm emission filters) and glial cell (535 nm excitation and 610 nm emission filters) images were collected using the ImageExpress Micro automatic fluorescent microscopy system (Molecular Devices, Sunnyvale, Calif.) employing a Nikon 10× Plan Fluor objective and Cool Snap HQ CCD camera. The Neurite Outgrowth module in the MetaMorph Imaging software was used to automatically count total cell number, number of neuron cells, and the extent of neurite outgrowth.
In the graph of FIG. 2, 100% response was the response observed for untreated cells. Exposure to Aβ1-42 produced a decrease in neurite outgrowth. Treatment of cells with compounds prior to and concomitantly with Aβ1-42 gave a neuroprotective effect with neurite outgrowth maintained or enhanced relative to untreated cells.

[2] = system: SK-N-SH human neuroblastoma cells; assay: Serum deprivation/JC-1 mitochondrial membrane potential (MMP) assay; type: cell-based; conditions: for Emax / pEC50: Homo sapiens; for Emax: SK-N-SH, percent maximal intensity in JC-1 ratio normalized to 10 μM dimebolin, read-out: JC-1 max %; for pEC50: serum deprivation ~18 hours, JC-1 ratio normalized to peak value for 10 μM dimebolin, single curve fit to mean data of n=2-3, read-out: EC50
Method in brief: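 Cells were serum-deprived ~18 h in MEM with or without compound (DMSO ≤1%), then stained with JC-1 for 35 min at 37° C. The red/green fluorescence ratio (560/595 vs 485/535 nm) was normalized to the peak response of 10 μM dimebolin. EC50 came from one curve fit to mean data (n=2-3, duplicates).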

[3] = system: mice; assay: Inhibitory avoidance in mouse; type: in vivo; conditions: 24-hour recall, significant at 0.11 mg/kg and 1.1 mg/kg, FIG. 4
Method: Inhibitory Avoidance in Mouse: The inhibitory avoidance task involves the uses of a two-compartment step through apparatus (Ugo Basile, Collegeville, Pa.) that measures the animal's ability to remember a brief noxious stimulus (foot shock), and is considered a measure of trial learning, and memory consolidation. Briefly, mice were placed in a lighted compartment of the apparatus where the latency to enter into the preferred dark compartment is recorded. […] Retention testing was conducted 24 hours later with the animal again placed in the lighted compartment where its latency to reenter the dark side of the apparatus was measured (no shock). Increasing retention latency was regarded as an index of memory consolidation (Bitner, R. S.; Bunnelle, W. H.; et al. Broad-spectrum efficacy across cognitive domains by α7 nicotinic acetylcholine receptor agonism correlates with activation of ERK1/2 and CREB phosphorylation pathways. J. Neurosci. 2007, 27(39), 10578-10587.).

[4] = system: primary rat cortical neurons; conditions: comparable to that evoked by BDNF; cited from earlier work
[5] = system: Patients with mild-to-moderate Alzheimer's disease; conditions: cited from earlier work
[6] = system: Male Sprague Dawley rats; assay: Analgesic effect against neuropathic pain (L5/L6 spinal nerve ligation, von Frey filaments); type: in vivo; conditions: rat
Method: Animals were prepared for testing, by use of a surgical procedure that induces neuropathic pain in one paw. Male Sprague Dawley rats were purchased from Charles River (Portage, Mich.). Prior to surgery, animals were housed in groups and maintained in a temperature-regulated environment. Following nerve ligation surgery, animals were housed in groups, and had access to food and water ad libitum.
The L5 and L6 spinal nerves of anesthetized rats were tightly ligated in a manner described previously (see Kim and Chung, Pain (1992) vol. 50 pp. 355-363). An incision was made on the dorsal portion of the hip and the muscle was blunt-dissected to reveal the spinal processes. The L6 transverse process was removed, and the left side L5 and L6 spinal nerves were tightly ligated with 5.0 braided silk suture. The wound was cleaned, the membrane sewn with 4.0 dissolvable Vicryl suture and the skin closed with wound clips. The paw affected by the surgical procedure (the left paw) develops an allodynic response, a hypersensitivity to mechanical and other stimuli; neuropathic pain is assessed as an increased sensitivity in the surgically affected (left) allodynic paw compared to the control paw on the right side, and measured by comparing the response of the (left side) allodynic paw to the response of the unaffected right side control paw.
For the assessment of neuropathic pain, mechanical allodynia in the affected paw of animals that had undergone spinal nerve ligation was evaluated using testing with von Frey filaments. As described previously by S. R. Chaplan, et al (“Quantitative assessment of tactile allodynia in the rat paw” J. Neurosci. Meth. (1994) vol. 53 pp. 55-63), two weeks following surgery rats were acclimated to a testing box constructed of plexiglass with a wire mesh floor which allowed access to the plantar surface of the animal's hindpaws. […] The efficacy of the compound in reducing neuropathic pain at different doses was determined by comparing response in the surgery-affected paw versus the response in the control paw. […]

For `Cc1ccc2c(c1)c1c(n2CCc2ccc(C)nc2)C[C@@H]2CC[C@H]1N2` (single isomer, unassigned) [Example 5], the Emax [1] was 123%, the “Aβ1-42-induced reduction of neurite outgrowth” value ([1]; pretreatment about 5 hours, then about 5 μM Aβ1-42 with test compound for 3 days, FIG. 2) was “significant attenuation; also recorded: neurite outgrowth levels similar to or enhanced relative to untreated control cells” and the Emax [2] was 209%. The pEC50 ([2]; SK-N-SH cells) was 4.89, the “maintenance of mitochondrial function (JC-1 ratio) under cellular stress” value ([2]; SK-N-SH cells, relative to 10 μM dimebolin (100% response), FIG. 3) was “maintained mitochondrial function in a dose dependent manner; also recorded: concentration-dependent enhancement of mitochondrial function maintenance” and the “latency to reenter the dark side (punishment side)” value [3] was “significantly increased; also recorded: concentration-dependent improvement”.
In the case of `O=c1ccnc2ccc(-n3c4c(c5cc(F)ccc53)CN3CCC4CC3)cn12` [Example 261, 7-(9-fluoro-1,3,4,5-tetrahydro-6H-2,5-ethanoazepino[4,3-b]indol-6-yl)-4H-pyrido[1,2-a]pyrimidin-4-one], the Emax [1] was 104%, the Emax [2] was 160% and the pEC50 ([2]; SK-N-SH cells) was 5.24.
In the case of `c1cnc2ccc(-n3c4c(c5ccccc53)[C@H]3CC[C@@H](C4)N3)cc2c1` (single isomer, unassigned) [Example 278], the Emax [1] was 96%, the Emax [2] was 189% and the pEC50 ([2]; SK-N-SH cells) was 5.57.
With `O=c1ccnc2ccc(-n3c4c(c5ccccc53)CN3CCC4CC3)cn12` [Example 277, 7-(1,3,4,5-tetrahydro-6H-2,5-ethanoazepino[4,3-b]indol-6-yl)-4H-pyrido[1,2-a]pyrimidin-4-one] the Emax [1] was 91%, the Emax [2] was 190% and the pEC50 ([2]; SK-N-SH cells) was 5.62.
`c1ccc2c(c1)c1c(n2-c2ccc3ccncc3c2)C[C@@H]2CC[C@H]1N2` (single isomer, unassigned) [Example 280] gave an Emax [1] of 107%, an Emax [2] of 201% and a pEC50 ([2]; SK-N-SH cells) of 5.28.
With `O=c1cnc2ccc(-n3c4c(c5ccccc53)CN3CCC4CC3)cc2[nH]1` [Example 274, 7-(1,3,4,5-tetrahydro-6H-2,5-ethanoazepino[4,3-b]indol-6-yl)quinoxalin-2(1H)-one] the Emax [1] was 111%, the Emax [2] was 235% and the pEC50 ([2]; SK-N-SH cells) was 5.64.
Work on `Cc1ccc2cc(-n3c4c(c5cc(F)ccc53)CN3CCC4CC3)ccc2n1` [Example 229, 9-fluoro-6-(2-methylquinolin-6-yl)-3,4,5,6-tetrahydro-1H-2,5-ethanoazepino[4,3-b]indole] yielded an Emax [1] of 165%, an Emax [2] of 282% and a pEC50 ([2]; SK-N-SH cells) of 6.15.
For `Cc1ccc2c(c1)c1c(n2CCc2ccc(C)nc2)CCN(C)C1` [dimebolin, 2,3,4,5-tetrahydro-2,8-dimethyl-5-[2-(6-methyl-3-pyridinyl)ethyl]-1H-pyrido[4,3-b]indole], the neurite outgrowth [4] is given as “increase neurite outgrowth”, the “clinical course of disease (improvement over baseline for ADAS-Cog)” value ([5]; 20 mg three times a day (60 mg/day)) is given as “significant improvement” and the “most frequent adverse event” value ([5]; clinical studies of dimebolin) is given as “dry mouth”.
For `O=c1cccnn1-c1ccc(Cn2c3c(c4cc(F)ccc42)CN2CCC3CC2)cn1` [Example 248, 2-{5-[(9-fluoro-1,3,4,5-tetrahydro-6H-2,5-ethanoazepino[4,3-b]indol-6-yl)methyl]pyridin-2-yl}pyridazin-3(2H)-one], the Emax [1] was 109%, the Emax [2] was 110% and the pEC50 ([2]; SK-N-SH cells) was 5.28.
Compound `O=c1cccnn1-c1ccc(-n2c3c(c4cc(F)ccc42)CN2CCC3CC2)nc1` [Example 262, 2-[6-(9-fluoro-1,3,4,5-tetrahydro-6H-2,5-ethanoazepino[4,3-b]indol-6-yl)pyridin-3-yl]pyridazin-3(2H)-one] has an Emax [1] of 99%, an Emax [2] of 182% and a pEC50 ([2]; SK-N-SH cells) of 5.06.
`Cc1ccc2c(c1)c1c(n2CCc2ccc(C)nc2)C[C@H]2CC[C@@H]1N2` (single isomer, unassigned) [Example 6] showed an Emax [1] of 124%, an Emax [2] of 163% and a pEC50 ([2]; SK-N-SH cells) of 5.24.
In the case of `Cc1ccc2c(c1)c1c(n2CCc2ccc(C)nc2)C2CCN(CC2)C1` [Example 2, 9-methyl-6-[2-(6-methylpyridin-3-yl)ethyl]-3,4,5,6-tetrahydro-1H-2,5-ethanoazepino[4,3-b]indole], the “reduction in mechanical allodynia” value ([6]; 10 mg/kg intraperitoneal injection, 30 minutes before testing, **p<0.01, ***p<0.001 vs. vehicle, FIG. 6) was 58%, the adverse effects ([6]; i.p. 1, 3, and 10 mg/kg) was “No complicating adverse effects were observed” and the “withdrawal threshold for allodynic limb (pressure applied to elicit a pain response)” value ([6]; intraperitoneally 30 minutes before testing, maximum effect 15 g) was “concentration-dependent improvement”. For the same compound, the Emax [1] was 117%.
